These results are taken from patent US10815257B2, “Polymorph of sodium neridronate and preparation process thereof” (ABIOGEN PHARMA S.P.A., priority 2018, dated 2020).

Format in all cases: physicochemical
Series [1] in a line: Hygroscopicity study by Dynamic Vapor Sorption (DVS). Conditions: 25° C.; for mass variation (humidity absorption, DVS): 90% relative humidity (RH); for behavior in DVS hygroscopicity study: RH 0 to 90%. As for the experimental part:
The Hygroscopicity study was carried out on samples of polymorphic crystalline forms F, B and E of sodium neridronate by measuring the humidity absorption kinetics, in a range of relative humidity (RH %) comprised between 0 and 90%, at the temperature of 25° C.

Series [2] is described as follows: Stability study at 40° C. and 75% RH monitored by XRD. Conditions: for stability of crystalline form over time (XRD): eight weeks observation. As for the experimental part:
The stability study was carried out on samples of crystalline polymorphic forms B, E, and the hemihydrate form F of sodium neridronate, stored in an environment characterized by 75% relative humidity (RH) and a temperature of 40° C.
The observation of the sample stability lasted for a period of eight weeks, during which once a week, […], an aliquot was taken from each sample and subjected to XRD analysis to observe any possible crystalline changes of the various samples over time.

Series [3] is described as follows: Thermodynamic solubility test. Conditions: buffer solution pH 7.4, 37° C., stirring about 500 rpm. As for the experimental part: For this purpose, a dissolution test was carried out in a buffer solution at pH 7.4. The thermodynamic solubility evaluation was performed leaving the sample in the buffer solution, under magnetic stirring at about 500 rpm, for a period of 24 hours, at a temperature of 37° C.

`NCCCCCC(O)(P(=O)([O-])O)P(=O)(O)O.[Na+]` [form B, sodium neridronate]: in series [1], the “mass variation (humidity absorption, DVS)” value (“mass variation” below) was “about 5%” and the “behavior in DVS hygroscopicity study” value is “hydrophilic behavior”. In series [2], the “onset of conversion into crystalline hemihydrate form F (XRD)” value is given as “begin to convert into the crystalline hemihydrate form F already after a week” and the “stability of crystalline form over time (XRD)” value (“stability … over time (XRD)” below) is “not stable over time”. The “extent of conversion into form F at the end of the observation period (XRD)” value in series [2] (eight weeks) is “only partially converted”. The compound also gave a thermodynamic solubility in series [3] (24 hours) of 92.97 mg/mL.
In the case of `NCCCCCC(O)(P(=O)([O-])O)P(=O)(O)O.[Na+]` [form F, sodium neridronate], in series [1], the “mass variation” value is on record as “without any appreciable mass variation” and the “behavior in DVS hygroscopicity study” value was “hydrophobic behavior”. Moreover, in series [2], the “stability … over time (XRD)” value is given as “stable even after eight weeks conditioning”. Moreover, in series [3] (buffer solution, 37 °C, pH 7.4, aqueous buffer, thermodynamic from solid), the thermodynamic solubility at 24 h was determined as 93.7 mg/mL.
Turning to `NCCCCCC(O)(P(=O)([O-])O)P(=O)(O)O.[Na+]` [form E, sodium neridronate], in series [1], the “mass variation” value is listed as “about 1%” and the “behavior in DVS hygroscopicity study” value is reported as “hydrophilic behavior”. For the same compound, in series [2], the “onset of conversion into crystalline hemihydrate form F (XRD)” value was “begin to convert into the crystalline hemihydrate form F already after a week” and the “stability … over time (XRD)” value is given as “not stable over time”. The “extent of conversion into form F after seven weeks (XRD)” value in series [2] (seven weeks) is on record as “completely converted into the crystalline hemihydrate form F”.
